{
  "source": "paper PMC9450956",
  "about": "(Science translational medicine, 2021)",
  "key": {"[1]": {"test_system": "NSCLC A549 and colon cancer HCT116 xenografts", "experiment": "Cancer cell line-derived subcutaneous xenografts", "type": "in vivo, mice", "details": "intraperitoneal, once per day for 14 days"}, "[2]": {"test_system": "LN229-derived brain xenografts", "experiment": "LN229-derived intracranial brain xenografts, survival", "type": "in vivo, mice", "details": "intraperitoneal, once per day for 14 days; Kaplan-Meier"}, "[3]": {"test_system": "human colon, breast carcinoma, and NSCLC PDXs", "experiment": "Cancer PDX mouse models, tumor progression and survival", "type": "in vivo, mice", "details": "for progression of PDXs: intraperitoneal, once per day for 14 days"}, "SUMO1 mRNA": {"test_system": "SUMO1 mRNA", "experiment": "SUMO1 mRNA expression in LN229 cells", "type": "cell-based, human", "details": "LN229 cancer cells"}, "SUMO1 [4]": {"test_system": "SUMO1", "experiment": "Western and dot blots for SUMO1 in LN229 cells", "type": "cell-based, human", "details": "72 hours"}, "[5]": {"test_system": "SUMO1-CDK6, SUMO1-RanGAP1, and SUMO3-RanGAP1 conjugation", "experiment": "In vitro sumoylation assay", "type": "biochemical", "details": "CDK6 and RanGap1 as substrates"}, "SUMO1 [6]": {"test_system": "SUMO1", "experiment": "SUMO1 target engagement in colon cancer PDX mice", "type": "in vivo", "details": "intraperitoneal once per day for 3 days, dose-dependent"}, "histamine H2": {"biological_target": "histamine H2 (Homo sapiens, UniProt P25021)", "sequence (P25021 whole entry)": "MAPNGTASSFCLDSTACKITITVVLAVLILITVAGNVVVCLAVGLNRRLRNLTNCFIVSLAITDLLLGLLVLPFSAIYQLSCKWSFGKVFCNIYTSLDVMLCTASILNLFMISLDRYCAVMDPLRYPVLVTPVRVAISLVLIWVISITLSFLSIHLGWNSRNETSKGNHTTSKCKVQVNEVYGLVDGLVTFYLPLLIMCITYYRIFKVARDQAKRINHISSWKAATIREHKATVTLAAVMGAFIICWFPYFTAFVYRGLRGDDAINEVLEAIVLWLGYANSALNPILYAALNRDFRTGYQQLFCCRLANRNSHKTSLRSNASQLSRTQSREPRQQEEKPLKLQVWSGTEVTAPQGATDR", "experiment": "LeadProfilingScreen selectivity profiling", "type": "binding", "details": "10 μM"}, "[7]": {"biological_target": "human ether-a-go-go–related gene (Homo sapiens, UniProt Q12809)", "sequence (Q12809 whole entry)": "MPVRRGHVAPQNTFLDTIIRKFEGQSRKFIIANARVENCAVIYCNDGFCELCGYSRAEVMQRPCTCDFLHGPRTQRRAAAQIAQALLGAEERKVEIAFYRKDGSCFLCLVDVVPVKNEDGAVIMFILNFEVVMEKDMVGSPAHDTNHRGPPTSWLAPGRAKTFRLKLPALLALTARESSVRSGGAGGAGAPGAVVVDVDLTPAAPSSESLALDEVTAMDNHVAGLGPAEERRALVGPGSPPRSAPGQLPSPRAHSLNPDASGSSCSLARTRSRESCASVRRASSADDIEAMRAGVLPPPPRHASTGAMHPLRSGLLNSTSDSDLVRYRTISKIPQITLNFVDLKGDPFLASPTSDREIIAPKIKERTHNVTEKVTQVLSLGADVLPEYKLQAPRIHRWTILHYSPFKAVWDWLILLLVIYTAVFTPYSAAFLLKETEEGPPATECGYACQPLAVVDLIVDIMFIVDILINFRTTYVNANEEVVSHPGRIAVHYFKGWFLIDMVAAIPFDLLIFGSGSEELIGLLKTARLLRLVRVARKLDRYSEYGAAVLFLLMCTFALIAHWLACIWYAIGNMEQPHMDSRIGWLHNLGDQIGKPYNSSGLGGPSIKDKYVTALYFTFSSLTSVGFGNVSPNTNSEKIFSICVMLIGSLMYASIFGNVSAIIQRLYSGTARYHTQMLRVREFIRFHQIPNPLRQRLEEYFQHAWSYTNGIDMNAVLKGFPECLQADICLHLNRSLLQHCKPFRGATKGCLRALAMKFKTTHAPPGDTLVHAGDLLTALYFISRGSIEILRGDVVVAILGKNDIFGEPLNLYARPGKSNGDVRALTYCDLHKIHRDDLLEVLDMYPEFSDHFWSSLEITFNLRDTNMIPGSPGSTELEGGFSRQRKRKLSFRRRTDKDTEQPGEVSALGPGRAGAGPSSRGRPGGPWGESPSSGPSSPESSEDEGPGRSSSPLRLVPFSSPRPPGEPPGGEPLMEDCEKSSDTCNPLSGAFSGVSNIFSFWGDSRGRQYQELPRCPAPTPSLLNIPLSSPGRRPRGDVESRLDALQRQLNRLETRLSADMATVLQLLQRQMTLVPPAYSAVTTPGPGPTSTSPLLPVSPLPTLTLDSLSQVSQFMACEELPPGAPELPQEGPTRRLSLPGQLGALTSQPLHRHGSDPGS", "experiment": "LeadProfilingScreen selectivity profiling", "type": "binding", "details": "10 μM"}, "cellular CAPRIN1": {"biological_target": "T1, cellular CAPRIN1 (Homo sapiens, UniProt Q14444)", "T1 sequence (Q14444 1-709)": "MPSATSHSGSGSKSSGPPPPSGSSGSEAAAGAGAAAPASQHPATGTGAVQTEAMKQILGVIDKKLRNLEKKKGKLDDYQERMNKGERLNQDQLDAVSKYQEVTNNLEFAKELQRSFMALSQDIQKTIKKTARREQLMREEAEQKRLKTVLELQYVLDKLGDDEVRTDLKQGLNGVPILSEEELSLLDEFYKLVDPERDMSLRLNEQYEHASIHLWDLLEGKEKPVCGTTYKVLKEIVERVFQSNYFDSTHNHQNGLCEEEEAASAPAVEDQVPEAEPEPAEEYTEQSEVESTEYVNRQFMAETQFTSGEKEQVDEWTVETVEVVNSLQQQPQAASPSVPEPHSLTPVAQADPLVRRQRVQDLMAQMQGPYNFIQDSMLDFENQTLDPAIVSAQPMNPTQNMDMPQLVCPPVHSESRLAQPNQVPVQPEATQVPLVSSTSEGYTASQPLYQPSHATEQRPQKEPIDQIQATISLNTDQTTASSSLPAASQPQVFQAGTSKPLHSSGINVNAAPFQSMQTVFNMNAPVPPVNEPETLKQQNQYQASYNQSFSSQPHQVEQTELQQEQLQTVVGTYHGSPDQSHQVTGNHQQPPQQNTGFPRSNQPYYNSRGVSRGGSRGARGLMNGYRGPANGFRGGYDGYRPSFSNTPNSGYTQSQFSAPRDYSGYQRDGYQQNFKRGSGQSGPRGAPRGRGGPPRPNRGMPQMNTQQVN", "experiment": "HB007-biotin pull-down competition with cell lysates, immunoblot", "type": "binding", "details": "free compound added to cell lysates"}, "[8]": {"test_system": "kinases, ion channels, NHRs, enzymes", "experiment": "LeadProfilingScreen selectivity profiling", "type": "binding, human", "details": "10 μM"}, "[9]": {"test_system": "cytochrome P450s (2C9, 2D6, and 3A4)", "experiment": "CYP inhibition in human liver microsomes", "type": "in vitro ADME", "details": "10 μM"}, "[10]": {"test_system": "matched normal lung, colon, breast and brain cells", "experiment": "Cell viability, matched normal cells", "type": "cell-based, human", "details": "compared to cancer cell lines"}, "cancer cells": {"test_system": "cancer cells", "experiment": "Caspase-3/7 activation and caspase-3 cleavage", "type": "cell-based, human", "details": "caspase-3 cleavage"}, "[11]": {"experiment": "Oral and intravenous PK of suspension", "type": "in vivo, rodents", "details": "administered as a suspension"}, "Microsomal stability [12]": {"experiment": "Microsomal stability", "type": "in vitro ADME, human", "details": "1 μM, 45 min, LC-MS"}, "Microsomal stability [13]": {"experiment": "Microsomal stability", "type": "in vitro ADME, mouse", "details": "1 μM, 45 min, LC-MS"}, "[14]": {"experiment": "Oral PK of solution formulation", "type": "in vivo", "details": "rat"}, "SUMO1 [15]": {"test_system": "SUMO1", "experiment": "Western blots for SUMO1 in normal lung epithelial cells", "type": "cell-based, human", "details": "72 hours; compared to lung cancer cells"}, "adenosine A2A": {"biological_target": "adenosine A2A (Homo sapiens, UniProt P29274)", "sequence (P29274 whole entry)": "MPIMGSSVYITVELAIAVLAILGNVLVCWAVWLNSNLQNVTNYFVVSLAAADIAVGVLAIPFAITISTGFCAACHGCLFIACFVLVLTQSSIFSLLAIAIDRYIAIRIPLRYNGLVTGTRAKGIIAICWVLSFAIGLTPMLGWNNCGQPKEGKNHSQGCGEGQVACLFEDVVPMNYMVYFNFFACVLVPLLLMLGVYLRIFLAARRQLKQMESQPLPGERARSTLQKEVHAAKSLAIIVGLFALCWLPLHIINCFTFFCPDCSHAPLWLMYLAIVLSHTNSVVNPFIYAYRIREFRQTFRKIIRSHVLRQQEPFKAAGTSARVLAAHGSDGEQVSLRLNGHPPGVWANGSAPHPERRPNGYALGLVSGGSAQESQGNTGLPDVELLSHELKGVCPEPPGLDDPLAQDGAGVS", "experiment": "LeadProfilingScreen selectivity profiling", "type": "binding", "details": "10 μM"}, "SUMO1 [16]": {"test_system": "SUMO1", "experiment": "Western and dot blots for SUMO1 in HCT116 cells", "type": "cell-based, human", "details": "gradually over about 24 hours"}, "[17]": {"biological_target": "5-hydroxytryptamine receptor 2B (5-HT2B) (Homo sapiens, UniProt P41595)", "sequence (P41595 whole entry)": "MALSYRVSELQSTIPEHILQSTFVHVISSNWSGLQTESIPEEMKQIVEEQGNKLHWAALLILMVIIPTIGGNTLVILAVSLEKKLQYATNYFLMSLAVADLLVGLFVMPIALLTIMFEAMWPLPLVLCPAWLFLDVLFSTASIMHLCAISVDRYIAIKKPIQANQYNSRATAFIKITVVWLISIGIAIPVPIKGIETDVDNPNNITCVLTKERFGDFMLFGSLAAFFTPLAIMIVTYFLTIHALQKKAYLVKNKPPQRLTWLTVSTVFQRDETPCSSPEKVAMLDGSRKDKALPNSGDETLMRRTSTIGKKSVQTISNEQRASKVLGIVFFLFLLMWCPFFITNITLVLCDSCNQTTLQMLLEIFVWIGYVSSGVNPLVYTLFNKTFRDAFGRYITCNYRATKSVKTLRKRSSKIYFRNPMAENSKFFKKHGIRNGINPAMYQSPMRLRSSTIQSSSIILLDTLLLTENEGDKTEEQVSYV", "experiment": "LeadProfilingScreen selectivity profiling", "type": "binding", "details": "10 μM"}, "[18]": {"experiment": "Intraperitoneal PK, plasma and brain", "type": "in vivo, NOD/SCID mice", "details": "intraperitoneal injection 20 mg/kg, mice"}},
  "data": [
    {"smiles": "O=C(Nc1ccc(Cl)c([N+](=O)[O-])c1)Nc1nc2ccccc2s1", "note": "[CPD1, 1-(1,3-benzothiazol-2-yl)-3-(4-chloro-3-nitrophenyl)urea]", "values": [
      {"measurement": "xenograft growth", "setting": "[1]", "result": "suppressed xenograft growth"},
      {"measurement": "survival of brain xenograft-bearing mice", "setting": "[2]", "result": "increased the survival"},
      {"measurement": "progression of PDXs", "setting": "[3]", "result": "effectively suppressed the progression"},
      {"measurement": "effect on SUMO1 mRNA expression", "setting": "SUMO1 mRNA", "result": "no effects"},
      {"measurement": "effect on SUMO1 and SUMO2/3 protein amounts", "setting": "SUMO1 [4]", "result": "reduced the conjugated and unconjugated forms and total amounts of SUMO1 but not SUMO2/3 protein"},
      {"measurement": "effect on in vitro SUMO conjugation", "setting": "[5]", "result": "no effects"},
      {"measurement": "effect on SUMO1 protein in xenograft tissues", "setting": "SUMO1 [6]", "result": "markedly reduced both the total amounts and conjugate SUMO1 but not SUMO2/3 protein"}
    ]},
    {"smiles": "N#Cc1ccc2nc(NC(=O)Nc3cccc(Cl)c3)sc2c1", "note": "[HB007]", "values": [
      {"measurement": "inhibition of histamine H2", "setting": "histamine H2", "result": "some inhibition"},
      {"measurement": "activity against human ether-a-go-go–related gene", "setting": "[7]", "result": "no activity"},
      {"measurement": "xenograft growth", "setting": "[1]", "result": "suppressed xenograft growth"},
      {"measurement": "competitive inhibition of binding of cellular CAPRIN1 to HB007-linked biotin", "setting": "cellular CAPRIN1", "result": "competitively blocked"},
      {"measurement": "activity against kinases, ion channels, NHRs, enzymes", "setting": "[8]", "result": "no activity"},
      {"measurement": "inhibition of CYP enzymes", "setting": "[9]", "result": "did not inhibit"},
      {"measurement": "growth inhibition of matched normal cells", "setting": "[10]", "result": "much lower growth inhibition effects"},
      {"measurement": "survival of PDX mice", "setting": "[3]; BRCA1 mutant breast carcinoma and primary or metastatic colon carcinoma PDX", "result": "increased the survival"},
      {"measurement": "progression of PDXs", "setting": "[3]", "result": "effectively suppressed the progression"},
      {"measurement": "induction of apoptotic cell death", "setting": "cancer cells", "result": "did not induce apoptotic cell death"},
      {"measurement": "plasma concentrations after oral and intravenous administration", "setting": "[11]", "result": "low plasma concentrations"},
      {"measurement": "metabolic stability in human liver microsomes", "setting": "Microsomal stability [12]", "result": "sufficiently stable"},
      {"measurement": "metabolic stability in mouse liver microsomes", "setting": "Microsomal stability [13]", "result": "sufficiently stable"},
      {"measurement": "oral bioavailability in plasma", "setting": "[14]", "result": "up to 82%"},
      {"measurement": "effect on conjugated and total SUMO1 in normal lung epithelial cells", "setting": "SUMO1 [15]", "result": "no effects"},
      {"measurement": "inhibition of adenosine A2A", "setting": "adenosine A2A", "result": "some inhibition"},
      {"measurement": "effect on SUMO1 protein in xenograft tissues", "setting": "SUMO1 [6]", "result": "markedly reduced both the total amounts and conjugate SUMO1 but not SUMO2/3 protein"},
      {"measurement": "effect on SUMO1 and SUMO2/3 protein amounts", "setting": "SUMO1 [16]", "result": "reduced the conjugated and total amounts of SUMO1 but not SUMO2/3 protein"},
      {"measurement": "inhibition of 5-HT2B", "setting": "[17]", "result": "some inhibition"},
      {"measurement": "brain-to-plasma partition coefficient", "setting": "[18]", "result": 0.57}
    ]},
    {"smiles": "O=C(Nc1ccc(Cl)cc1)Nc1nc2ccccc2s1", "note": "[compound 789482, reference compound]", "values": [
      {"measurement": "competitive inhibition of binding of cellular CAPRIN1 to HB007-linked biotin", "setting": "cellular CAPRIN1", "result": "failed to competitively inhibit"}
    ]},
    {"smiles": "O=[N+]([O-])c1cccc2nc(Nc3ccc(Cl)cc3)sc12", "note": "[compound 11208948, reference compound]", "values": [
      {"measurement": "competitive inhibition of binding of cellular CAPRIN1 to HB007-linked biotin", "setting": "cellular CAPRIN1", "result": "failed to competitively inhibit"}
    ]}
  ]
}
